Data published in patent US9062026B2, “Fused pyrimidines and substituted quinazolines as inhibitors of p97” (Cleave Biosciences, Inc., priority 2012, dated 2015).
pIC50: −log10 of the molar value. Like-named read-outs stand apart in the source and are kept apart here.

Target: p97 (Homo sapiens (Human), UniProt P55072)
Test: P97 ATPase biochem assay (ADP Glo)
Format: biochemical
Description: The ATPase assay is performed according the following protocol: Purified enzyme (20 nM p97), substrate (20 μM ATP) and a dose titration of compounds are mixed in buffer (50 mM TRIS pH 7.5, 20 mM MgCl2, 0.02% TX-100, 1 mM DTT, 0.2% (v/v) glycerol) and incubated at 37° C. for 15 minutes. The reaction is terminated and the level of product generated is measured using the ADP Glo Assay Kit (Promega, Madison Wis.). Plotting product generated versus compound concentration and using a four-parameter fit model generates an IC50 value for each compounds.

[1] = 20 nM p97, 20 μM ATP, 37° C., 15 minutes, read-out: p97 biochem IC50

Sequence of p97 (P55072 whole entry): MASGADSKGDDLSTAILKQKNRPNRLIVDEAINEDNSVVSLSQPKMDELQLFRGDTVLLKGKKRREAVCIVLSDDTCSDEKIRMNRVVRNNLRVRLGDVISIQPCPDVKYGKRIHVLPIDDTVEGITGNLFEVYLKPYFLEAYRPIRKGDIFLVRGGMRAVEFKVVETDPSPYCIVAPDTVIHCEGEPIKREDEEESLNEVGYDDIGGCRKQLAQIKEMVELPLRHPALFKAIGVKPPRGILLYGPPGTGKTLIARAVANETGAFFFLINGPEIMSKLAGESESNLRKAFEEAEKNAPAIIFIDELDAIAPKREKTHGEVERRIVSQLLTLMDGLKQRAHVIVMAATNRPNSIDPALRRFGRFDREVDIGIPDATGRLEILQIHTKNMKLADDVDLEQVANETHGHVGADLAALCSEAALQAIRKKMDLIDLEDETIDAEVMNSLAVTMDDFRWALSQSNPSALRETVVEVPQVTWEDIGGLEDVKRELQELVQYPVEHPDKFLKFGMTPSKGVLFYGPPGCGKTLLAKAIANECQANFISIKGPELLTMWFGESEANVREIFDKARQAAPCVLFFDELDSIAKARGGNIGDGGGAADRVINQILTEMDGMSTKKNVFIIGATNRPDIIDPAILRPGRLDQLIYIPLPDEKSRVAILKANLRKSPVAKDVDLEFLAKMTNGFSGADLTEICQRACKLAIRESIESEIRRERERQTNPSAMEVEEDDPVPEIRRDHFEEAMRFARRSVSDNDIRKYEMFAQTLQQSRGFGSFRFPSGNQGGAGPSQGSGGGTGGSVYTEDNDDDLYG

Row | SMILES | pIC50 (read-out: p97 IC50) | pIC50 [1]
1 | C#CC(=O)NCc1cc2ccccc2n1-c1nc2c(c(NCc3ccccc3)n1)CCCC2 [N-({1-[4-(benzylamino)-5,6,7,8-tetrahydroquinazolin-2-yl]-1H-indol-2-yl}methyl)prop-2-ynamide] | > 7.00 | –
2 | COCCOc1cccc2c(NCc3ccccc3)nc(-n3c(CNS(C)(=O)=O)cc4ccccc43)nc12 [N-({1-[4-(benzylamino)-8-(2-methoxyethoxy)quinazolin-2-yl]-1H-indol-2-yl}methyl)methanesulfonamide] | > 7.00 | –
3 | COc1cccc2c(NCc3ccccc3)nc(-n3c(CNC(C)=O)cc4ccccc43)nc12 [N-({1-[4-(benzylamino)-8-methoxyquinazolin-2-yl]-1H-indol-2-yl}methyl)acetamide] | > 6.52 | –
4 | Clc1cc2ccccc2n1-c1nc2c(c(NCc3ccccc3)n1)CNCC2 [N-benzyl-2-(2-chloro-1H-indol-1-yl)-5H,6H,7H,8H-pyrido[4,3-d]pyrimidin-4-amine] | > 6.52 | –
5 | COCCOc1cccc2c(NCc3ccccc3)nc(-n3c(OC)cc4ccccc43)nc12 [N-benzyl-2-(2-methoxy-1H-indol-1-yl)-8-(2-methoxyethoxy)quinazolin-4-amine] | > 7.00 | –
6 | Cc1nc2ccccc2n1-c1nc2c(c(NCc3ccccc3)n1)CCCC2 [N-benzyl-2-(2-methyl-1H-1,3-benzodiazol-1-yl)-5,6,7,8-tetrahydroquinazolin-4-amine] | > 6.52 | –
7 | Cc1cc2ccccc2n1-c1nc2c(c(NCc3ccccc3)n1)COCC2 [N-benzyl-2-(2-methyl-1H-indol-1-yl)-5H,7H,8H-pyrano[4,3-d]pyrimidin-4-amine] | > 6.52 | –
8 | Cc1cc2ccccc2n1-c1nc2c(c(NCc3ccccc3)n1)CN(C(C)C)CC2 [N-benzyl-2-(2-methyl-1H-indol-1-yl)-6-(propan-2-yl)-5H,6H,7H,8H-pyrido[4,3-d]pyrimidin-4-amine] | > 6.52 | –
9 | Cc1[nH]c2ccccc2c1-c1nc2c(c(NCc3ccccc3)n1)CCCC2 [N-benzyl-2-(2-methyl-1H-indol-3-yl)-5,6,7,8-tetrahydroquinazolin-4-amine] | > 6.52 | –
10 | Cc1cc2c(Cl)cccc2n1-c1nc2c(c(NCc3ccccc3)n1)CNCC2 [N-benzyl-2-(4-chloro-2-methyl-1H-indol-1-yl)-5H,6H,7H,8H-pyrido[4,3-d]pyrimidin-4-amine] | > 6.52 | –
11 | c1ccc(CNc2nc(-n3c(N4CCOCC4)nc4ccccc43)nc3c2CCCC3)cc1 [N-benzyl-2-[2-(morpholin-4-yl)-1H-1,3-benzodiazol-1-yl]-5,6,7,8-tetrahydroquinazolin-4-amine] | > 6.52 | –
12 | c1ccc(CNc2nc(-n3c(CN4CCOCC4)cc4ccccc43)nc3c2CCCC3)cc1 [N-benzyl-2-[2-(morpholin-4-ylmethyl)-1H-indol-1-yl]-5,6,7,8-tetrahydroquinazolin-4-amine] | > 6.52 | –
13 | COCCOc1cccc2c(NCc3ccccc3)nc(-n3c(CN(C)C)cc4ccccc43)nc12 [N-benzyl-2-{2-[(dimethylamino)methyl]-1H-indol-1-yl}-8-(2-methoxyethoxy)quinazolin-4-amine] | > 7.00 | –
14 | Cc1nc2ccccn2c1-c1nc2c(c(NCc3ccccc3)n1)CCCC2 [N-benzyl-2-{2-methylimidazo[1,2-a]pyridin-3-yl}-5,6,7,8-tetrahydroquinazolin-4-amine] | > 6.52 | –
15 | COCCOc1cccc2c(NCc3ccccc3)nc(-n3c(C)nc4ccccc43)nc12 [N-benzyl-8-(2-methoxyethoxy)-2-(2-methyl-1H-1,3-benzodiazol-1-yl)quinazolin-4-amine] | > 6.52 | –
16 | COc1cccc2c(NCc3ccccc3)nc(-c3c(C)[nH]c4ccccc34)nc12 [N-benzyl-8-methoxy-2-(2-methyl-1H-indol-3-yl)quinazolin-4-amine] | > 7.00 | –
17 | COc1cccc2c(NCc3ccccc3)nc(-n3c(OC)cc4ccccc43)nc12 [drawing 204] | – | > 5.70
18 | NCc1cc2ccccc2n1-c1nc2c(c(NCc3ccccc3)n1)CCCC2 [drawing 219] | – | > 5.70
19 | COCCOc1cccc2c(NCc3ccccc3)nc(-n3c(OC)nc4ccccc43)nc12 [drawing 222] | – | > 5.70
